This note sets out measurements from ChEMBL document CHEMBL5233245, “Monocarboxylate transporter 1 and 4 inhibitors as potential therapeutics for treating solid tumours: A review with structure-activity relationship insights” (Eur J Med Chem, 2020).

For orientation: IC50 means the concentration that gives 50% inhibition. By Ki is commonly meant the dissociation constant of the complex between target and ligand, obtained from inhibition or displacement. What is called EC50 is the concentration that produces a half-maximal response.

The target of test [1] is T1, Monocarboxylate transporter 1 (Homo sapiens, UniProt P53985).
T1 sequence (P53985 whole entry): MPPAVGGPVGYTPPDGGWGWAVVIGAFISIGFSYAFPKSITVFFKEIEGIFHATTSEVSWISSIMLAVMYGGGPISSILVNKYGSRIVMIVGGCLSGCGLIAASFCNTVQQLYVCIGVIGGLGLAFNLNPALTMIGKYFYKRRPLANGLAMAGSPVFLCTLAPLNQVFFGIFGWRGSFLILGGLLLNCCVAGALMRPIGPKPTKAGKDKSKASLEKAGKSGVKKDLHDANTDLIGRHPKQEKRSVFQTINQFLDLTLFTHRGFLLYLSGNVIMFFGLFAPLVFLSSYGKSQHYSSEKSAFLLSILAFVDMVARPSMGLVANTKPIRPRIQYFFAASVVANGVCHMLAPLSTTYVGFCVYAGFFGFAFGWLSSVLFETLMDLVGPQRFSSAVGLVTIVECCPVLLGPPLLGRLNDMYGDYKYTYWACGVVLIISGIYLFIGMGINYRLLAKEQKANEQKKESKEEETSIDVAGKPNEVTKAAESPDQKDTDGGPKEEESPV
Description: Inhibition of MCT1 (unknown origin) assessed as reduction in [14C]lactate uptake incubated for 20 mins by liquid scintillation counting analysis.

In test [2] the target is T2, Monocarboxylate transporter 1 (Rattus norvegicus, UniProt P53987).
T2 sequence (P53987 whole entry): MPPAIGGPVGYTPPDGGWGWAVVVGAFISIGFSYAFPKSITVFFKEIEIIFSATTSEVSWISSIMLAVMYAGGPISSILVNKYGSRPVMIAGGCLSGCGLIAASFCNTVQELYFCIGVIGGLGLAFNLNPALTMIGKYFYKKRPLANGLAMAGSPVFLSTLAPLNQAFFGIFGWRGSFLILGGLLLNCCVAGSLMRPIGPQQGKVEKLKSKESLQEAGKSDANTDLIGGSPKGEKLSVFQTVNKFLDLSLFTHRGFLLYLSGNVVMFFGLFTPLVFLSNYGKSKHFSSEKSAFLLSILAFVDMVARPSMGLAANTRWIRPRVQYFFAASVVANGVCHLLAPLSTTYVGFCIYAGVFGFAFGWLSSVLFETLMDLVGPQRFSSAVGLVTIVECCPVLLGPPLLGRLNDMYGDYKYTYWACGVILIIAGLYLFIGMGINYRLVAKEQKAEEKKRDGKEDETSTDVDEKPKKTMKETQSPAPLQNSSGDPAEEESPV
Description: Inhibition of MCT1 in rat Brain-like endothelial cells incubated for 15 mins in presence of [14C]lactic acid by scintillation counter assay. The class given is cell-based.

The target of test [3] is T3, Monocarboxylate transporter 2 (Rattus norvegicus, UniProt Q63344).
T3 sequence (Q63344 whole entry): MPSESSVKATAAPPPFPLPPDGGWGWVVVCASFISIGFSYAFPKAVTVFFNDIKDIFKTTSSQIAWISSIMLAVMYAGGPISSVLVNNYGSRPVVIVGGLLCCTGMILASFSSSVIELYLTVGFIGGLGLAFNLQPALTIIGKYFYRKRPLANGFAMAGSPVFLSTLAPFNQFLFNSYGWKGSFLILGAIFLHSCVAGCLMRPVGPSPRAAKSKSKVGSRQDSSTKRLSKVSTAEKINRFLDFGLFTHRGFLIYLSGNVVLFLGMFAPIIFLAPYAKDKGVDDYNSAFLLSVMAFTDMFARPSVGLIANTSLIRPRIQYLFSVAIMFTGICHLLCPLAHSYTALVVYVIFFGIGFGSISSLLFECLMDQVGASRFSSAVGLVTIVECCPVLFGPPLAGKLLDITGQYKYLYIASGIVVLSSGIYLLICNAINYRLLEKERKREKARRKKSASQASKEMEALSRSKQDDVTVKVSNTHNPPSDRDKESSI
Briefly: Binding affinity to MCT2 in rat Erythrocyte assessed as inhibition constant. The class given is cell-based.

Test [4] concerns the target T2, Monocarboxylate transporter 1. Briefly: Binding affinity to MCT1 in rat Erythrocyte assessed as inhibition constant. The class given is cell-based.
Test [5] relates to Raji. Briefly: Cytotoxicity against human Raji cells assessed as inhibition of cell growth by MTT assay. The class given is functional, cell-based.
Test [6] deals with T2, Monocarboxylate transporter 1. Description: Inhibition of MCT1 in rat Brain-like endothelial cells incubated for 15 mins in presence of [14C]lactate by […]. The class given is cell-based.
The subject of another test is MDA-MB-231. Briefly: Cytotoxicity against human MDA-MB-231 cells assessed as inhibition of cell growth. The class given is functional, cell-based.
The test system of a further test is Mus musculus. Briefly: Antitumor activity against human WiDr cells xenografted in CD-1 mouse assessed as reduction in tumor growth at 25 mg/kg,ip qd measured after 16 days. The class given is functional. More on the design: scale not given: the % may be the effect or the level left. Conditions: time 16 day. Background: In xenograft studies the graft and the host belong to different species.

Test [7] has as its system Raji. Description: Antiproliferative activity against human Raji cells assessed as inhibition of cell growth by MTT assay. The class given is functional, cell-based. On the technique in general: Tetrazolium assays rely on reduction of a dye to a coloured formazan, in cell work by metabolically active cells.
For test [8], the target named is T1, Monocarboxylate transporter 1. Description: Binding affinity to MCT1 (unknown origin) assessed as inhibition constant.
Test [9] has as its target T4, Monocarboxylate transporter 4 (Homo sapiens, UniProt O15427).
T4 sequence (O15427 whole entry): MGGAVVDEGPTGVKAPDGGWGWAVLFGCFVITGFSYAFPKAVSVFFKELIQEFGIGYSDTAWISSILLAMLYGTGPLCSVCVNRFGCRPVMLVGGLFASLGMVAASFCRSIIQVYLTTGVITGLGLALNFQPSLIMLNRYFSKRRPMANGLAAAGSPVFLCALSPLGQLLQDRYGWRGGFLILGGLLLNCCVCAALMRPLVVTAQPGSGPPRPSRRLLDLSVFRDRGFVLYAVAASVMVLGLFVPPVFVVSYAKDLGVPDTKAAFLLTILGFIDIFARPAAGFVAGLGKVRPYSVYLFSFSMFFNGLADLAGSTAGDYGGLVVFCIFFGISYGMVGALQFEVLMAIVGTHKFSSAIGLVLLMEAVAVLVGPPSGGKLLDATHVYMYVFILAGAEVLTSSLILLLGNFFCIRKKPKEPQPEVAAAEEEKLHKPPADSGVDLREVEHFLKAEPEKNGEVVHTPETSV
Briefly: Binding affinity to human MCT4 expressed in Xenopus laevis oocytes assessed as inhibition constant in presence of [14C]lactate by fluorescence assay.

For test [10], the target named is T4, Monocarboxylate transporter 4. Briefly: Inhibition of MCT4 (unknown origin).
Test [11] addresses T1, Monocarboxylate transporter 1. Description: Inhibition of MCT1 (unknown origin).

Each structure is given as a SMILES string.

Regarding `COc1cc(N(CC(C)C)CC(C)C)ccc1/C=C(\C#N)C(=O)O`, the IC50 in test [1] came out at 11 nM. Still for that read-out and setting: the same measure for `CCCCCN(CCCCC)c1ccc(/C=C(\C#N)C(=O)O)c(OC)c1`: 34 nM; for `COc1cc(N2CCCC2)ccc1/C=C(\C#N)C(=O)O`: 48 nM.

In the case of `COc1cc(N2CCCCC2)ccc1/C=C(\C#N)C(=O)O`, the IC50 in test [1] is 25 nM. Same read-out and setting: the value for `COc1cc(N(Cc2ccccc2)Cc2ccccc2)ccc1/C=C(\C#N)C(=O)O` was 37 nM.

For `N#C/C(=C\c1cn(-c2ccccc2)c2ccccc12)C(=O)O`, the concentration for half-maximal inhibition (IC50) in [2] stood at 12.8 nM. The same measure, in the same setting: the same measure for `N#C/C(=C\c1cn(Cc2ccccc2)c2ccccc12)C(=O)O`: 65.9 nM. For `Cc1n[nH]c(C)c1Cc1sc2c(c1C(=O)N1C[C@@H](O)CO1)c(=O)n(C)c(=O)n2CC(C)C`, the values for the Ki in test [3] and in test [4] were below 10 nM and 2 nM, respectively. Regarding `CC(C)c1cc(=O)c2c(OCCCO)cc(OCc3ccc4ccccc4c3)cc2o1`, the EC50 in the test on Raji [5] is 100 nM.

`N#C/C(=C\c1ccc(OCCBr)cc1)C(=O)O`: in [6], the IC50 was above 5000 nM. `Cc1cc(=O)c2c(OCCCO)cc(OCc3ccc4ccccc4c3)cc2o1`: the EC50 with Raji [5] is 1000 nM.

For the compound `COC(=O)[C@@](O)(CO)COC(=O)c1nn(-c2ccc(N(Cc3ccccc3)Cc3ccccc3)cc2)c2ccccc12`, the IC50 in the test on MDA-MB-231 turned out to be 2330 nM. Take `CC(C)(C)[Si](OCCOc1ccc(/C=C(\C#N)C(=O)O)cc1)(c1ccccc1)c1ccccc1`: the Activity in the test on Mus musculus is 28%.

Take `N#C/C(=C\c1ccc(OCCO)cc1)C(=O)O`: in test [6], the IC50 is above 5000 nM. With `CC(C)c1cc(=O)c2c(OCc3ccccc3CO)cc(OCc3ccc4ccccc4c3)cc2o1`, the EC50 with Raji [5] was above 100000 nM. Turning to `N#C/C(=C\c1cn(-c2ccccn2)c2ccccc12)C(=O)O`, in test [2], the IC50 was above 1000 nM. As to `CC(C)Cn1c(=O)n(C)c(=O)c2nc(CCCCCO)c(COc3ccc4ccccc4c3)nc21`, the EC50 in the test with Raji [7] is below 50 nM. On to `CC(C)(C)[Si](Oc1ccc(/C=C(\C#N)C(=O)O)cc1)(c1ccccc1)c1ccccc1`, for which the Activity in the test on Mus musculus is given as 28%. Turning to `COC(=O)[C@@](O)(CO)COC(=O)c1nn(-c2ccc(N(Cc3ccc(F)cc3)Cc3ccc(F)cc3)cc2)c2ccccc12`, the IC50 in the test with MDA-MB-231 stood at 3020 nM. For the compound `Cc1[nH]nc(C(F)(F)F)c1Cc1sc2c(c1C(=O)N1C[C@](C)(O)CO1)c(=O)n(C)c(=O)n2C(C)C` [AZD3965], the inhibition constant Ki in [8] turned out to be 2 nM. Take `CC(C)(OCc1nn(Cc2ccccc2)c2ccccc12)C(=O)O` [BINDARIT]: the Ki in [9] stood at 30200 nM. On to `N#C/C(=C\c1ccc(O)cc1)C(=O)O` [alpha-CYANO-4-HYDROXYCINNAMIC ACID], for which the IC50 was above 150000 nM in test [10] and 100000 nM in test [11].
